# Laboratory results published in US20110295343A1, “NEAR-INFRARED ELECTROMAGNETIC MODIFICATION OF CELLULAR STEADY-STATE MEMBRANE POTENTIALS” (priority 2008, published 2011).
# Values joined by “and” are separate entries in the source; they are usually repeats but may differ in a detail not shown here. Identical values can stand only once.
# Experiments:
# MRSA in the nares = experiment: Nasal colonization human study Part One, quantitative swab cultures, MRSA; assay type: in vivo, S. aureus; conditions: for MRSA Average: laser w/ drug arm, one line per patient; for reduction of bioburden: laser plus 2% erythromycin paste
# Description: (§1) This investigational protocol was an open-label study of subjects who are colonized with MRSA in the nares (nostril). The study was done in two parts.
# (§2) In this human study, three arms were produced. […] This was done on day 1 and again on day three; and Arm #3: ⅓ of the subjects were treated with the laser and then a topical antibiotic three times a day for five days. Prior to enrollment in this study, prospective subjects met all of the following criteria: age≧18 years and ≦70 years of age; previous positive MRSA culture; negative urine pregnancy test or post-menopausal for one year; willing to comply with study requirements, including return visits and self-application of topical antibiotics; and willing to provide informed consent to participate. Prospective subjects were excluded from this study if any of the following criteria were met: pregnancy; patients who are severely immunocompromised (such as may occur in AIDS, renal transplant regimens, immunosuppressed states consequent to malignancy or agents used in rendering oncologic care, or who suffer from end stage renal disease); diabetic patients; allergy to antimicrobials being used in the study (group 3).
# (§3) All participants underwent an initial quantitative assessment for nasal carriage of S. aureus, during their first visit. Each participant had the anterior nares (each nostril) sampled for culture with a circular movement (three rotations on each side) of a sterile wood applicator plain Rayon® tipped swab in each nostril and placed in a labled tube. 2 ml of room temp phosphate buffered saline was placed in the tube after the removal of the swab (to completely cover the swab in the tube). Each swab was then placed back in the tube and the tube was then vortexed for 15 seconds to disperse isolates of MRSA and/or MSSA into the PBS solution. Aliquots of PBS from the tube were plated in the following manner: 100 μl from each tube was lawn plated in triplicate (3×) on selective Chromogenic MRSA And MSSA agar. Plates were placed in incubator within 30 minutes of the plating procedure, and colonies were counted manually, and recorded 18 hrs after plating.
# (§4) On day one of the study, all subjects underwent this exact procedure in arms 1 and 2 of the study two minutes before the laser procedure. They again were sampled in the same manner 2 minutes after the laser procedure. In the third arm of the study, they were swabbed two minutes before the procedure and the first antibiotic administration was completed after the laser therapy. The post/laser swab sample was taken for this arm 20 min later.
# (§5) On day three of the study, all subjects from arms one two and three underwent the exact same procedures as day 1 of the study.
# (§6) On day five all subjects from all arms underwent just one swabbing per nostril with the exact same sampling procedure one time.
# (§7) Application of H202: 3% OTC hydrogen peroxide was applied to a cotton pledget for application to the subject prior to irradiation. This was inserted in the nose for 120 seconds and then removed. The subjects were then given doses of phototherapeutic near infrared radiation as described. Application of generic topical Antimicrobial: The subjects were first given doses of phototherapeutic near infrared radiation as described. […] The swab was inserted approximately 1 cm in to the anterior nares and rotated 360 degrees several times and removed. Patients were instructed to perform the exact application procedure 3 times a day for the remaining 5 days.
# (§8) The NOVEON™ laser was used for two (2) six-minute treatments in each nostril on day (1) and day (3) of the study.
# (§9) The laser was calibrated before the first treatment of the day. Intermittent temperature testing of the treatment site was performed on each subject using a noncontact infrared thermometer (Raytek Minitemp), 30-60 second intervals.
# MSSA in the nares [1] = experiment: Nasal colonization human study Part Two, laser plus topical erythromycin, MSSA; assay type: in vivo, S. aureus; conditions: one patient, baseline count >1000 CFU's; day 5 culture
# Description: A second human study was conducted, to further evaluate the therapeutic potential of the NOVEON™ laser system, including its ability to reverse drug resistance in bacteria. The study was conducted in a similar manner as Part One, above. Outcome measures assessed included both laboratory study and clinical observations.
# Positive anterior nares cultures were obtained in six patients (12 nostrils) having nasal colonization of MRSA or MSSA, before initiating bacterial photodamage through doses of phototherapeutic near infrared radiation. One patient had MRSA only, 3 had MSSA only, and 2 had both MRSA and MSSA.
# The swab was inserted approximately 1 cm in to the anterior nares of the subject, rotated 360 degrees several times and removed.
# The laser was calibrated before the first treatment of the day and between each patient. The NOVEON™ laser was used for four six-minute treatments of the nares at the following sets of dosimetries (Tables 59), which were evaluated for safety in previous studies. […] Temperatures of the nares were recorded every 30 seconds with an IR temperature thermometer.
# Quantitative cultures from each nostril were obtained and plated in triplicate on chromogenic agar before and 20 minutes after exposure on day 1 and day 3. […]
# MRSA = experiment: CFU counts of MRSA plated on agar with antibiotic after sub-lethal NIMELS laser (Examples IX-XII); assay type: cell-based, Staphylococcus aureus; conditions: for effect of sub-lethal NIMELS irradiation on antibiotic action against MRSA colonies (words): antibiotic at resistant MIC just below effectiveness level
# Text: The following parameters illustrate the general bacterial methods according to the invention as applied to MRSA for the in vitro Experiments V and VIII-XII.
# The null hypothesis is μ1−μ2=0 and μ1−μ3=0 where:
# a) μ1 is sub-lethal dosimetry from the NIMEL laser system on MRSA as a control and;
# The null hypothesis is μ1−μ2=0 and μ1−μ3=0 where: • a) μ1 is sub-lethal dosimetry from the NIMEL laser system on MRSA as a control and; • b)μ2 is the same sub-lethal dosimetry from the NIMEL laser system on MRSA with the addition of tetracycline at resistant MIC just below effectiveness level and; • c) μ3 is the same sub-lethal dosimetry from the NIMEL laser system on MRSA with the addition of rifampin at resistant MIC just below effectiveness level.
# The null hypothesis is μ1−μ2=0 and μ1−μ3=0 where: a) μ1 is sub-lethal dosimetry from the NIMEL laser system on MRSA as a control and; b)μ2 is the same sub-lethal dosimetry from the NIMEL laser system on MRSA with the addition of methicillin at resistant MIC just below effectiveness level and; […]
# MSSA in the nares [2] = experiment: Nasal colonization human study Part One, quantitative swab cultures, MSSA; assay type: in vivo, S. aureus; conditions: for s. aureus Average: laser w/ drug arm, one line per patient
# Description: as §1, §2, §3, §4, §5, §6, §7, §8, §9
# [3] = Initial Analysis, Post-treatment swab, left nostril
# [4] = Initial Analysis, Post-treatment swab, right nostril
# [5] = Initial Analysis, Pre swab (baseline), left nostril, mean of triplicate plates
# [6] = Initial Analysis, Pre swab (baseline), right nostril
# [7] = Second Analysis, Post-treatment swab, left nostril
# [8] = Second Analysis, Post-treatment swab, right nostril
# [9] = Second Analysis, Pre swab, left nostril
# [10] = Second Analysis, Pre swab, right nostril
# [11] = Third Analysis, Swab, left nostril
# [12] = Third Analysis, Swab, right nostril
# [13] = patient 01-005, 2% erythromycin paste three times a day for five days
smiles,measurement,setting,value
CC[C@H]1OC(=O)[C@H](C)[C@@H](O[C@H]2C[C@@](C)(OC)[C@@H](O)[C@H](C)O2)[C@H](C)[C@@H](O[C@@H]2O[C@H](C)C[C@H](N(C)C)[C@H]2O)[C@](C)(O)C[C@@H](C)C(=O)[C@H](C)[C@@H](O)[C@]1(C)O [Erythromycin],MRSA Average,MRSA in the nares; [3],0 CFU (2×) and 166 CFU
same,MRSA Average,MRSA in the nares; [4],0 CFU (2×) and 1 CFU
same,MRSA Average,MRSA in the nares; [5],0 CFU (2×) and 3072 CFU
same,MRSA Average,MRSA in the nares; [6],0 CFU (2×) and 8 CFU
same,MRSA Average,MRSA in the nares; [7],0 CFU
same,MRSA Average,MRSA in the nares; [8],0 CFU
same,MRSA Average,MRSA in the nares; [9],0 CFU (2×) and 76 CFU
same,MRSA Average,MRSA in the nares; [10],0 CFU
same,MRSA Average,MRSA in the nares; [11],0 CFU
same,MRSA Average,MRSA in the nares; [12],0 CFU
same,reduction of bioburden,"MRSA in the nares; patient 01-005, heavily colonized nostril",≥ 3 log
same,reduction of bioburden,"MRSA in the nares; patient 01-005, moderately colonized nostril",≥ 2 log
same,"outcome on MRSA colonization, laser plus topical erythromycin",MRSA in the nares; [13],eradication in both nostrils
same,reduction in MSSA,MSSA in the nares [1],3 log
same,effect of sub-lethal NIMELS irradiation on antibiotic action against MRSA colonies (words),MRSA,successful reversal of MRSA resistance
same,effect of sub-lethal NIMELS irradiation on antibiotic action against MRSA colonies (words),MRSA; listed as erythromycin,resistance to erythromycin being reversed
same,"MRSA colony count, CONTROL (no laser)","MRSA; no laser, agar with erythro 4 ug/ml, replicates B-4 1 to 5",196 and 168 and 175 and 177 and 195
same,"MRSA colony count, EXPERIMENTAL","MRSA; sub-lethal NIMELS laser, agar with erythro 4 ug/ml, replicates B-4 1 to 5",27 and 39 (2×) and 35 and 28
same,s. aureus Average,MSSA in the nares [2]; [3],0 CFU (2×) and 188 CFU
same,s. aureus Average,MSSA in the nares [2]; [4],0 CFU
same,s. aureus Average,MSSA in the nares [2]; [5],0 CFU (2×) and 3045 CFU
same,s. aureus Average,MSSA in the nares [2]; [6],0 CFU (2×) and 16 CFU
same,s. aureus Average,MSSA in the nares [2]; [7],0 CFU
same,s. aureus Average,MSSA in the nares [2]; [8],0 CFU
same,s. aureus Average,MSSA in the nares [2]; [9],0 CFU (2×) and 71 CFU
same,s. aureus Average,MSSA in the nares [2]; [10],0 CFU
same,s. aureus Average,MSSA in the nares [2]; [11],0 CFU
same,s. aureus Average,MSSA in the nares [2]; [12],0 CFU
same,"outcome on MSSA colonization, laser plus topical erythromycin",MSSA in the nares [2]; [13],eradication in both nostrils
